According to BindingDB's records for doi:10.1021/jm501636x (University of Massachusetts Medical School, 2015):

Experiment: Inhibition of PAD4 in C57BL/6 mouse bone marrow neutrophils assessed as inhibition of PMA-stimulated neutrophil extracellular trap formation preincubated for 30 mins followed by PMA stimulation measured after 3 to 4 hrs by DNA/neutrophil elastase overlap assay

- EC50: 20 µM
Compound: CC(C)(C)n1nnc([C@H](CCCNC(=N)CCl)NC(=O)c2ccc(-c3ccccc3)cc2)n1
